Reference: paper PMC9481636, “Mechanism of action of non-camptothecin inhibitor Genz-644282 in topoisomerase I inhibition” (Communications Biology, 2022)
Positions count from the first letter of the chain named.

Tests used:
Format in all cases: biochemical
[1] = target: T1, Topoisomerase I (TOP1) (Homo sapiens, UniProt P11387, N722A); assay: nicked-DNA accumulation/relaxation assay with purified recombinant TOP1 N722A
T1 construct: 6×His-tagged TOP1 (baculovirus, High Five cells)
T1 sequence (P11387 2-765 N722A): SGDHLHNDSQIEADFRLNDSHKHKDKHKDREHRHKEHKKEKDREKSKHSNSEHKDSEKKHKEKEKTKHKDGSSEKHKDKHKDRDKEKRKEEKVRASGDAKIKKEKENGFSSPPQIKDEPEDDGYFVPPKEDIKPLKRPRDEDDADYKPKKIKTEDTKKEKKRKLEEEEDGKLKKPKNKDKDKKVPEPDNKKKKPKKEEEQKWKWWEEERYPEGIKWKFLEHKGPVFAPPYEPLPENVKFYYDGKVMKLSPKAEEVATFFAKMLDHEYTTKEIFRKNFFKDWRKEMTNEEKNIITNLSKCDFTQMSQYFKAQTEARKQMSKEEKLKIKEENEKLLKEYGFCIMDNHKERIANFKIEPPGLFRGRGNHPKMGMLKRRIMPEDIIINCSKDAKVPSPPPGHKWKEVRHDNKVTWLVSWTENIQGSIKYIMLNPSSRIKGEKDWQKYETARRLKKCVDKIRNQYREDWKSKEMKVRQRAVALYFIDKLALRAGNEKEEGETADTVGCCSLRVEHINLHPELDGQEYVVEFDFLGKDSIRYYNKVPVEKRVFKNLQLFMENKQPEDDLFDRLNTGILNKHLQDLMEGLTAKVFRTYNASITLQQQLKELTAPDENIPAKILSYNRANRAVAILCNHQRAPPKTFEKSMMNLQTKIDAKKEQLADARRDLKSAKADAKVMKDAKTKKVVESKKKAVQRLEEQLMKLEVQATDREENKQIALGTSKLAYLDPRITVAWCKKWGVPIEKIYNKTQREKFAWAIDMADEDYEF

[2] = target: T2, Topoisomerase I (TOP1) (Homo sapiens, UniProt P11387); assay: nicked-DNA accumulation/relaxation assay with purified recombinant wild-type TOP1
T2 construct: 6×His-tagged TOP1 (baculovirus, High Five cells)
T2 sequence (P11387 2-765): T1 sequence (P11387 2-765 N722A) with A721N

[3] = target: T3, Topoisomerase I (TOP1) (Homo sapiens, UniProt P11387, N722S); assay: nicked-DNA accumulation assay with purified recombinant TOP1 N722S, […] Genz
T3 construct: 6×His-tagged TOP1 (baculovirus, High Five cells)
T3 sequence (P11387 2-765 N722S): T1 sequence (P11387 2-765 N722A) with A721S

`CNCCn1c(=O)c2cc(OC)c(OC)cc2c2cnc3cc4c(cc3c21)OCO4` [Genz, 8,9-dimethoxy-5-(2-N-methylaminoethyl)-2,3-methylenedioxy-5H-dibenzo[c,h][1,6]naphthyridin-6-one] was tested, and the “nicked-DNA accumulation/relaxation assay with purified recombinant TOP1 N722A” value [1] was “accumulation of nicked DNA on N722A and N722S proteins after treatment with Genz was higher than that on the wild type”, the “nicked-DNA accumulation/relaxation assay with purified recombinant wild-type TOP” value [2] was “slight accumulation of nicked DNA was also observed for the wild type” and the “nicked-DNA accumulation assay with purified recombinant TOP1 N722S, 10 μM Genz” value [3] was “The enhanced accumulation of nicked DNA appeared only in the N722S mutant after treatment with Genz”.
